Assay [1] has as its target T1, Amine oxidase [flavin-containing] B (Homo sapiens, UniProt P27338).
T1 sequence (P27338 whole entry): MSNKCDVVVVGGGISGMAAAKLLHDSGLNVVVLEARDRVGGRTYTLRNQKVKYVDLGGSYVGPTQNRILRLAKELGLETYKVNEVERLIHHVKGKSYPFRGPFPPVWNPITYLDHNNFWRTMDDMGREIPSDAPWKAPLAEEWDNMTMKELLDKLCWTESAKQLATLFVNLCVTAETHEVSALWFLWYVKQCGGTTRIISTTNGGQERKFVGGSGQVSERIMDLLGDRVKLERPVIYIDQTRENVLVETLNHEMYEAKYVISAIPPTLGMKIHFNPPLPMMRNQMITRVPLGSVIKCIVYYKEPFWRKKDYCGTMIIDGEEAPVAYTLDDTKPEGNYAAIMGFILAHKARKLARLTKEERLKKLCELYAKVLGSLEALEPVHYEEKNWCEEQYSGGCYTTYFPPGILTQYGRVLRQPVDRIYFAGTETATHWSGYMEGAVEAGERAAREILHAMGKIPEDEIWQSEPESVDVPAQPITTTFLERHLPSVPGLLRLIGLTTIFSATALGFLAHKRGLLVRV
As to conditions: 0.5 h, time 30 min.

A further assay has as its system Rattus norvegicus. Description: Antialzheimer activity against scopolamine-induced cognitive impairment in Sprague-Dawley rat assessed as reduction in short-term memory deficits at 1 to 3 mg/kg, ip administered for 30 mins followed by scopolamine induction measured after 30 mins by NOR test. The class given is functional, organism-based. The conditions noted are these: dose 1-3 mg/kg, time 60.0 min.

Active and inactive are the calls of the source. The calls are words filed in the database; no cut-off is given here.

In the case of `Clc1cccc(CNc2ccnc(N3CCNCC3)c2)c1`, the inhibition (in general, the drop in the measured response relative to a control, in per cent) at 1 µM in assay [1] stood at 3%.

For the compound `COc1cc2c(cc1OC)C(=O)C(CC1CCN(Cc3ccccc3)CC1)C2` (stereo not drawn), the outcome in the assay with Rattus norvegicus was Active.

Compound `Clc1cccc(CNc2cc(N3CCNCC3)nc3ccccc23)c1` gave an inhibition at 1 µM in assay [1] of 7%.

These data come from ChEMBL document CHEMBL5370607 (J Med Chem, 2023).
